We go through three substances from US12570694B2, “Peptides and pharmaceutical, nutraceutical or veterinary compositions for hair loss prevention and/or treatment” (VYTRUS BIOTECH, S.L., priority 2016, dated 2026).

Non-standard residues stand in square brackets, D forms with d. sY = N[C@@H](Cc1ccc(OS(=O)(=O)O)cc1)C(=O)O

Holding throughout (format): cell-based
The test system of experiment [1] is human dermal fibroblasts (HDF). Nature of the experiment: Wound healing (scratch) assay on human dermal fibroblasts. The settings on record: FIG. 17; 5 μg/ml and 0.05 μg/ml; 5 days of treatment; triplicate mean; vs 0.1% FBS basal, 10% FBS and TGF-β1 positive controls. As for the experimental part: In order to test the effect of the sulfaction state of the peptides on their activity, it is herewith provided as reference example a wound healing assay conducted onto human dermal fibroblasts (HDF).
Human dermal fibroblasts were seeded in a 24-well plate and were grown to confluence. A 2 mm width scratch was done on the culture monolayer. Then the test products in culture medium were added and the cicatrisation process was followed by means of phase contrast microscopy. With this aim, photographs were taken at initial of the test (T=0 h) before the scratching and after the treatment (at 12 h and at 72 h). Cicatrisation process was evaluated by quantifying wound area reduction at each time.
Data at the end of the test (5 days of treatment) are depicted in FIG. 17, wherein the wound healing potential is depicted as the Healed Area (in μm^2) for assayed peptide.
The results derive from a triplicate test. Values of cicatrised area (or % of cicatrisation) are the mean values.

The test system of experiment [2] is human hair follicle papilla cells (HFDPC). Nature of the experiment: In vitro proliferation of hair follicle dermal papilla cells (BrdU incorporation). The settings on record: FIGS. 2 and 3; peptides with or without end-terminal modifications at 5.86, 2.93, 1.46 μg/ml; basal control = 100%. As for the experimental part:
In order to test the effects of the cell-free supernatants, as well as of the peptides of the invention, a proliferation assay was conducted onto human hair follicle papilla cells (CELL APPLICATIONS, INC; Normal human hair follicles from temporal scalp. Single donor: Ref. 602-05a. Lot. 2092.).
The culture media was a Papilla Cell Basal Medium supplemented with the Growth Supplements kit (Relative composition: Fetal bovine serum, growth factors and antibiotics. Application: 6% v/v).
HFDPC proliferation was assessed determining the proliferation index (%). Cell DNA replication was quantified by means of incorporated bromodeoxiuridine (BrdU) into DNA of treated cells. BrdU assay allows measuring cell proliferation based on cell capability of incorporating BrdU during S-phase of the cell cycle. Cells being divided incorporated BrdU that is further detected by means of antibodies and immunocytochemistry detection.
Cells were seeded at confluence in a 96-well plate. After stabilization and synchronization of cell cultures the tested products were added (at the final concentration indicated in Table 1 of Examples. After that, BrdU was added to cultures and HFDPC were incubated at 37° C. until complete BrdU incorporation. BrdU amounts were proportional to the number of cell divisions and thus to the growth of the treated culture.
Data are depicted in FIG. 1, FIG. 2 and FIG. 3, wherein it is shown the proliferation index (%) of HFDPC, calculated as the percentage of growing in relation to the basal control (non-treated HFDPC) which is accorded a 100% value of proliferation index.
Background: Incorporation of labelled thymidine or its analogues reports DNA synthesis.

Experiment [3] relates to human dermal fibroblasts (HDF). Nature of the experiment: In vitro proliferation of human dermal fibroblasts (BrdU incorporation). The settings on record: FIGS. 6 and 7; 4Aa at 25, 12.5, 1.25 μg/ml, 5Aa at 1.25, 0.63, 0.25 μg/ml; basal control = 100%. As for the experimental part: In order to further test the effects of the peptides of the invention in an additional setting, a proliferation assay was conducted onto human dermal fibroblasts (HDF).
Normal Human Dermal Fibroblasts (HDF) were obtained from foreskin samples, surpluses from surgery of young donors (0-3 years old) and stablished by using the standard method of explants growth and enzymic dissociation of proliferating cells. Cells were propagated and grown in Growth Medium (GM): Dulbecco's 1 g/L glucose medium, supplemented with 10% foetal bovine serum (FBS, PAA); 2 mM L-glutamine (Lonza); and antibiotics (100 μg/ml Penicillin and 100 U/ml of Streptomycin, Lonza). For routine subcultivation and propagation of the primary culture, cells were washed twice with PBS ([…] buffered saline, pH 7.4), harvested with trypsin—EDTA (Gibco) and counted in Neubauer chamber before its seeding in a new cell culture flask (Falcon, 75 cm2).
Test products were prepared at the defined final concentrations by its dilution in Maintenance Medium (Dulbecco's 1 g/L glucose medium, supplemented with 1% foetal bovine serum (FBS, PAA); 2 mM L-glutamine (Lonza); and antibiotics (100 μg/ml Penicillin and 100 U/ml of Streptomycin, Lonza), just before each application.
HFD proliferation was assessed determining the proliferation index (%). Cell DNA replication was quantified by means of incorporated bromodeoxiuridine (BrdU) into DNA of treated cells. […] Cells being divided incorporated BrdU that is further detected by means of antibodies and immunocytochemistry detection. […]
Data are depicted in FIG. 6 and FIG. 7, wherein it is shown the proliferation index (%) of HDF, calculated as the percentage of growing in relation to the basal control (non-treated HDF) which is accorded a 100% value of proliferation index. […]
Data are depicted in FIG. 16, wherein it is shown the proliferation index (%) of HDF, calculated as the percentage of growing in relation to the basal control (non-treated HDF) which is accorded a 100% value of proliferation index.

“CH3—C(O)—Xaa1IYT-NH2 (Ac-[sY]IYT-NH2; SMILES CC[C@H](C)[C@H](NC(=O)[C@H](Cc1ccc(OS(=O)(=O)O)cc1)NC(C)=O)C(=O)N[C@@H](Cc1ccc(O)cc1)C(=O)N[C@H](C(N)=O)[C@@H](C)O) [SEQ ID NO: 2, Xaa1 is a tyrosine residue with the side-chain hydroxyl group replaced by a radical —OSO3H]”: the “wound healing potential, Healed Area” value in experiment [1] is recorded as “have the same activity as the 4Aa non-sulfated peptide”.
“CH3—C(O)—YIXaa2T-NH2 (Ac-YI[sY]T-NH2; SMILES CC[C@H](C)[C@H](NC(=O)[C@H](Cc1ccc(O)cc1)NC(C)=O)C(=O)N[C@@H](Cc1ccc(OS(=O)(=O)O)cc1)C(=O)N[C@H](C(N)=O)[C@@H](C)O) [SEQ ID NO: 3, Xaa2 is a tyrosine residue with the side-chain hydroxyl group replaced by a radical —OSO3H]”: in experiment [1], the “wound healing potential, Healed Area” value is recorded as “have the same activity as the 4Aa non-sulfated peptide”.
As to “CH3—C(O)—YIYTQ-NH2 (Ac-YIYTQ-NH2) [SEQ ID NO: 7]”, the “proliferation index of HFDPC” value in experiment [2] is recorded as “can promote cell proliferation”. Further, in experiment [3], the “proliferation index of HDF” value is reported as “can promote cell proliferation of HDF”.
